Laboratory results as given in patent publication US6750217B2, “Benzenesulfonamide derivatives and their use as MEK inhibitors” (Warner-Lambert Company, priority 1999, dated 2004).

Tests used:
[1] = biological target: GST-MEK (p45MEK) / GST-MAPK (p44MAP kinase) (Homo sapiens, UniProt Q02750); assay: APK IC50; cascade assay for inhibitors of the MAP kinase pathway; type: biochemical
Procedure: According to one aspect of the invention, the compounds are MEK inhibitors. MEK inhibition assays include the cascade assay for inhibitors of MAP kinase pathway described at column 6, line 36 to column 7, line 4 of U.S. Pat. No. 5,525,625 and the in vitro MEK assay at column 7, lines 4-27 of the same patent, the entire disclosure of which is incorporated by reference (see also Examples 5-10 below).
Incorporation of ^32P into myelin basic protein (MBP) is assayed in the presence of a glutathione S-transferase fusion protein containing p44MAP kinase (GST-MAPK) and a glutathione S-transferase fusion protein containing p45MEK (GST-MEK). The assay solution contains 20 mM HEPES, pH 7.4, 10 mM MgCl2, 1 mM MnCl2, 1 mM EGTA, 50,μM [γ-^32P]ATP, 10 μg GST-MEK, 0.5 μg GST-MAPK and 40 μg MBP in a final volume of 100 μL. Reactions are stopped after 20 minutes by addition of trichloroacetic acid and filtered through a GF/C filter mat. ^32P retained on the filter mat is determined using a 120S Betaplate. Compounds are assessed at 10 μM for ability to inhibit incorporation of ^32P.
To ascertain whether compounds are inhibiting GST-MEK or GST MAPK, two additional protocols are employed. In the first protocol, compounds are added to tubes containing GST-MEK, followed by addition of GST-MAPK, MBP and [β-^32P]ATP. In the second protocol, compounds are added to tubes containing both GST-MEK and GST-MAPK, followed by MBP and [β-^32P]ATP.
Compounds that show activity in both protocols are scored as MAPK inhibitors, while compounds showing activity in only the first protocol are scored as MEK inhibitors.

C26 Cells = assay: C26 Cells; type: cell-based

GST-MEK (p45MEK) / GST-MAPK (p44MAP kinase), sequence (Q02750 whole entry): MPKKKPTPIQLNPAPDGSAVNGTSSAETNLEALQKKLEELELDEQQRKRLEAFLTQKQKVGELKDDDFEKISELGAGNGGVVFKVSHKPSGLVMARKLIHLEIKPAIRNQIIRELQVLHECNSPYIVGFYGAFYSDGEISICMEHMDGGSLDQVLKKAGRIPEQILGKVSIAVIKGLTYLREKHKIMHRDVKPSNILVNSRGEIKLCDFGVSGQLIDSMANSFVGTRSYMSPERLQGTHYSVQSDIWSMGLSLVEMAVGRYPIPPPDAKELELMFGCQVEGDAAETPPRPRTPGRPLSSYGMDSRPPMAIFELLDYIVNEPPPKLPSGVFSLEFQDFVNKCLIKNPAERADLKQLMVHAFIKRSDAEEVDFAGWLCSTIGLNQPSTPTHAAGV

| Structure (SMILES) | IC50 [1] [nM] | melting point | IC50 (C26 Cells) [nM] |
| --- | --- | --- | --- |
| COC(=O)c1cc(S(=O)(=O)N(C)C)c(F)c(F)c1Nc1ccc(I)cc1Cl [PD 193846, 2-(2-Chloro-4-iodo-phenlylamino)-5-dimethylsulfamoyl-3,4-difluoro-benzoic acid methyl ester] | 222 | – | – |
| NS(=O)(=O)c1cc(C(=O)O)c(Nc2ccc(I)cc2Cl)c(F)c1F [PD 215730, 2-(2-Chloro-4-iodo-phenylamino)-3,4-difluoro-5-sulfamoyl-benzoic acid] | 781 | 295 to 296 °C (dec.) | – |
| COc1ccc(CN(Cc2ccc(OC)cc2)S(=O)(=O)c2cc(C(=O)NOCC3CC3)c(Nc3ccc(I)cc3Cl)c(F)c2F)cc1 [PD 218774, 5-[Bis-(4-methoxy-benzyl)-sulfamoyl]-2-(2-chloro-4-iodo-phenylamino)-N-cyclopropylmethoxy-3,4-difluoro-benzamide] | > 3000 | – | – |
| NS(=O)(=O)c1cc(C(=O)NOCC2CC2)c(Nc2ccc(I)cc2Cl)c(F)c1F [PD 219622, 2-(2-Chloro-4-iodo-phenylamino)-N-cyclopropylmethoxy-3,4-difluoro-5-sulfamoyl-benzamide] | 186 | 219 to 227 °C (dec.) | 1600 |
| CN(Cc1cccnc1)S(=O)(=O)c1cc(C(=O)O)c(Nc2ccc(I)cc2Cl)c(F)c1F [PD 219795, 2-(2-Chloro-4-iodo-phenylamino)-3,4-difluoro-5-(methyl-pyridin-3-ylmethyl-sulfamoyl)-benzoic acid] | > 3000 | – | – |
| NS(=O)(=O)c1cc(C(=O)NO)c(Nc2ccc(I)cc2Cl)c(F)c1F [PD 224213, 2-(2-Chloro-4-iodo-phenylamino)-3,4-difluoro-N-hydroxy-5-sulfamoyl-benzamide] | 122 | 230 to 236 °C (dec.) | 9100 |
| CN(C)S(=O)(=O)c1cc(C(=O)O)c(Nc2ccc(I)cc2Cl)c(F)c1F [PD 224339, 2-(2-Chloro-4-iodo-phenylamino)-5-dimethylsulfamoyl-3,4-difluoro-benzoic acid] | 283 | – | > 10000 |
| Cc1cc(I)ccc1Nc1c(C(=O)O)cc(S(=O)(=O)N(C)C)c(F)c1F [PD 224340, 5-Dimethylsulfamoyl-3,4-difluoro-2-(4-iodo-2-methyl-phenylamino)-benzoic acid] | 441 | – | > 10000 |
| CN(C)S(=O)(=O)c1cc(C(=O)NOCC2CC2)c(Nc2ccc(I)cc2Cl)c(F)c1F [PD 250253, 2-(2-Chloro-4-iodo-phenylamino)-N-cyclopropylmethoxy-5-dimethylsulfamoyl-3,4-difluoro-benzamide] | 936 | 222 to 225 °C (dec.) | – |
| Cc1cc(I)ccc1Nc1c(C(=O)NOCC2CC2)cc(S(=O)(=O)N(C)C)c(F)c1F [PD 252745, N-Cyclopropylmethoxy-5-dimethylsulfamoyl-3,4-difluoro-2-(4-iodo-2-methyl-phenylamino)-benzamide] | 3700 | 171 to 172 °C | – |
